Reference: article PMC12472391, “Borylated Five-Membered Ring Iminosugars: Synthesis, Spectroscopic Analysis, and Biological Evaluation for Glycosidase Inhibition and Anticancer Properties for Application in Boron Neutron Capture Therapy (BNCT)—Part 1” (Pharmaceuticals, 2025)

Key:
[1] = Appearance: 1 mL of water added to 1 mg of solid, and mixed; type: physicochemical
[2] = system: β-D-glucuronidase (bovine liver); assay: Glycosidase inhibition, Table 7; type: biochemical; conditions: 1 mg/mL aqueous solution added, 27 °C, run in water
Protocol: (§1) All enzymes and para-nitrophenyl substrates were purchased from Sigma. Enzymes were assayed at 27 °C in citric acid (0.1M)/disodium hydrogen phosphate (0.2 M) buffers at the optimum pH for the enzyme. The incubation mixture consisted of […] enzyme solution, […] of 1 mg/mL aqueous solution of extract, and […] of the appropriate 5 mM para-nitrophenyl substrate made up in buffer at the optimum pH for the enzyme. The reactions were stopped by the addition of […] 0.4 M glycine (pH 10.4) during the exponential phase of the reaction, which had been determined at the beginning using uninhibited assays in which water replaced the inhibitor. Final absorbances were read at 405 nm using a Versamax microplate reader (Molecular Devices). Assays were carried out in triplicate, and the values given are the means of the three replicates per assay. All reactions run in water.

[3] = molecular target: T1, α-D-glucosidase (yeast) (Saccharomyces cerevisiae, UniProt P53341); assay: Glycosidase inhibition, Table 7; type: biochemical; conditions: 1 mg/mL aqueous solution added, 27 °C, run in water; for inhibition at 1000 µg/mL (stock): read-out: α-D-Glucosidase Yeast, percentage inhibition
T1 construct: purchased Sigma
T1 sequence (P53341 whole entry): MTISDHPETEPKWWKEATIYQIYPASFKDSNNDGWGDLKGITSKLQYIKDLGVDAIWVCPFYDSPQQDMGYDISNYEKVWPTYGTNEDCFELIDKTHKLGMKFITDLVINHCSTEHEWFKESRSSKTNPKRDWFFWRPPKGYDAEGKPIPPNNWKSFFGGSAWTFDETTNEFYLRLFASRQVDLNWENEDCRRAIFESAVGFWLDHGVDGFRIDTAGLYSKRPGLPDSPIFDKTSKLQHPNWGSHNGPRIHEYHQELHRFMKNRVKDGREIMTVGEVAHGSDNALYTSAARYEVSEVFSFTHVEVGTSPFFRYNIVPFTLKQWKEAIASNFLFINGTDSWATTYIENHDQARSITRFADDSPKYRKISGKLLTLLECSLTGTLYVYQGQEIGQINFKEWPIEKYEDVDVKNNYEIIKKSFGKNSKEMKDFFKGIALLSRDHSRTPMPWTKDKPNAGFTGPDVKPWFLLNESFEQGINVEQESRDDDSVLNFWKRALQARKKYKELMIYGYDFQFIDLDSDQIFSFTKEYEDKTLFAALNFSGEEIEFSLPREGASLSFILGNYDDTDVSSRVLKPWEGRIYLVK
Protocol: as §1

[4] = system: β-D-glucosidase (almond); assay: Glycosidase inhibition, Table 7; type: biochemical; conditions: 1 mg/mL aqueous solution added, 27 °C, run in water
Protocol: as §1

[5] = molecular target: α-D-glucosidase (rice) (Oryza sativa subsp. japonica, UniProt Q653V7); assay: Glycosidase inhibition, Table 6 (Laboratory 1); type: biochemical
α-D-glucosidase (rice), sequence (Q653V7 34-885): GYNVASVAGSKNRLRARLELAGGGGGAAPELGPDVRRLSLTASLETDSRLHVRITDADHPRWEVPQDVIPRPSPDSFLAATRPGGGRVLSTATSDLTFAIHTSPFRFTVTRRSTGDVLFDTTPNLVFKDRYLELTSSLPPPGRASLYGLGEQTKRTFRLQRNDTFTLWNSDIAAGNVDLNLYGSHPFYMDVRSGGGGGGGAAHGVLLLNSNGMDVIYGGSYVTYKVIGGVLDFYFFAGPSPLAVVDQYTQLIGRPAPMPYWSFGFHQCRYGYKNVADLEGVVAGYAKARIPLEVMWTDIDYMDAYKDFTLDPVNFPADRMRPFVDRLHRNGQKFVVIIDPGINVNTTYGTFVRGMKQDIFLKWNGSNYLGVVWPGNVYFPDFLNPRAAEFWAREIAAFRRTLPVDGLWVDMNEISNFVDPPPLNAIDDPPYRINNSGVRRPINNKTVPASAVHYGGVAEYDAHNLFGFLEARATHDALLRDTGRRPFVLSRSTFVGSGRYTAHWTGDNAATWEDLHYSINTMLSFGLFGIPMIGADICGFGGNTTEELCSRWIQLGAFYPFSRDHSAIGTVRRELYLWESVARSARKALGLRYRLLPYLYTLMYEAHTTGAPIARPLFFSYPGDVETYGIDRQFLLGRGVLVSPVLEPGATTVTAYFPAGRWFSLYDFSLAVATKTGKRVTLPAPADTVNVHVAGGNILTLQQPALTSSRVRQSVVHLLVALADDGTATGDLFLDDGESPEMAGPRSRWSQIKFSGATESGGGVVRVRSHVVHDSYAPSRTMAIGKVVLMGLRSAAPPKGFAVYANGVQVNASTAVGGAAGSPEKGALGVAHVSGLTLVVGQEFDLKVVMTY

[6] = system: U87 glioblastoma cells; assay: Cancer screening, MTT growth inhibition; type: cell-based; conditions: 72-h exposure; for inhibition at 25 µM: read-out: U87 Glioblastoma, Percentage (%) Cell Growth Inhibition in response to 25 µM of Drug
Protocol: (§2) Two assays were run: the dose screen to ascertain cell growth inhibition in response to 25 µM of drug (on a blue background) and the dose response (GI50) (on a green background). For a discussion of BNCT as a radiotherapeutic modality, a rationalisation is provided here.
(§3) All test agents were prepared as stock solutions (20 mM) in dimethyl sulfoxide (DMSO) and stored at −20 °C. Cell lines used in the study included HT29, (colorectal carcinoma); U87, SJ-G2, (glioblastoma); MCF-7, (breast carcinoma); A2780 (ovarian carcinoma); H460 (lung carcinoma); A431 (skin carcinoma); Du145 (prostate carcinoma); BE2-C (neuroblastoma) and MiaPaCa-2 (pancreatic carcinoma); together with the one non-tumour derived normal breast cell line (MCF10A). All cell lines were incubated in a humidified atmosphere 5% CO2 at 37 °C. The cancer cell lines were maintained in Dulbecco’s modified Eagle’s medium (DMEM; Sigma, Australia) supplemented with foetal bovine serum (10%), sodium pyruvate (10 mM), penicillin (100 IUmL^−1), streptomycin (100 µg mL^−1), and L-glutamine (2 mM).
(§4) Growth inhibition was determined by plating cells in duplicate in medium (100 µL) at a density of 2500–4000 cells per well in 96-well plates. On day 0 (24 h after plating), when the cells are in logarithmic growth, medium (100 µL) with or without the test agent was added to each well. After a 72-h drug exposure, growth inhibitory effects were evaluated using the MTT (3-(4,5-dimethyltiazol-2-yl)-2,5-diphenyltetrazolium bromide) assay and absorbance read at 540 nm. The percentage growth inhibition was calculated at a fixed concentration of 25 µM, based on the difference between the optical density values on day 0 and those at the end of drug exposure. Each data point is the mean ± the standard error of the mean (SEM) calculated from three replicates, which were performed on separate occasions and separate cell line passages.

[7] = system: BE2-C neuroblastoma cells; assay: Cancer screening, MTT growth inhibition; type: cell-based; conditions: 72-h exposure; for inhibition at 25 µM: Homo sapiens, BE(2)-C, read-out: BE2-C Neuroblastoma, Percentage (%) Cell Growth Inhibition in response to 25 µM of Drug
Protocol: as §2, §3, §4

[8] = system: MIA-Pa-Ca2 pancreatic carcinoma cells; assay: Cancer screening, MTT growth inhibition; type: cell-based; conditions: 72-h exposure; for inhibition at 25 µM: Homo sapiens, MIA PaCa-2, 25 µM, read-out: MIA-Pa-Ca2 Pancreatic Carcinoma, Percentage (%) Cell Growth Inhibition in response to 25 µM of Drug
Protocol: as §2, §3, §4

[9] = system: A2780 ovarian carcinoma cells; assay: Cancer screening, MTT growth inhibition; type: cell-based; conditions: 72-h exposure; for inhibition at 25 µM: Homo sapiens, A2780, 25 µM, read-out: A2780 Ovarian Carcinoma, Percentage (%) Cell Growth Inhibition in response to 25 µM of Drug
Protocol: as §2, §3, §4

[10] = system: MCF-7 breast carcinoma cells; assay: Cancer screening, MTT growth inhibition; type: cell-based; conditions: for inhibition at 25 µM: Homo sapiens, MCF7, 72-h exposure, read-out: MCF-7 Breast Carcinoma, Percentage (%) Cell Growth Inhibition in response to 25 µM of Drug; for MCF-7 Breast Carcinoma, Percentage (%) Cell Growth Inhibition in response to 25 µM of Drug: 72-h exposure
Protocol: as §2, §3, §4

[11] = system: A431 skin carcinoma cells; assay: Cancer screening, MTT growth inhibition; type: cell-based; conditions: 72-h exposure; for inhibition at 25 µM: Homo sapiens, A-431, 25 µM, read-out: A431 Skin Carcinoma, Percentage (%) Cell Growth Inhibition in response to 25 µM of Drug
Protocol: as §2, §3, §4

[12] = system: SJ-G2 glioblastoma cells; assay: Cancer screening, MTT growth inhibition; type: cell-based; conditions: for inhibition at 25 µM: SJ-G2, 72-h exposure, read-out: SJ-G2 Glioblastoma, Percentage (%) Cell Growth Inhibition in response to 25 µM of Drug; for SJ-G2 Glioblastoma, Percentage (%) Cell Growth Inhibition in response to 25 µM of Drug: 72-h exposure
Protocol: as §2, §3, §4

[13] = system: Du145 prostate carcinoma cells; assay: Cancer screening, MTT growth inhibition; type: cell-based; conditions: for inhibition at 25 µM: Homo sapiens, DU-145, 72-h exposure, read-out: Du145 Prostate Carcinoma, Percentage (%) Cell Growth Inhibition in response to 25 µM of Drug; for Du145 Prostate Carcinoma, Percentage (%) Cell Growth Inhibition in response to 25 µM of Drug: 72-h exposure
Protocol: as §2, §3, §4

[14] = system: HT29 colon carcinoma cells; assay: Cancer screening, MTT growth inhibition; type: cell-based; conditions: 72-h exposure; for inhibition at 25 µM: Homo sapiens, HT-29, 25 µM, read-out: HT29 Colon Carcinoma, Percentage (%) Cell Growth Inhibition in response to 25 µM of Drug
Protocol: as §2, §3, §4

[15] = system: H460 lung carcinoma cells; assay: Cancer screening, MTT growth inhibition; type: cell-based; conditions: 72-h exposure; for inhibition at 25 µM: Homo sapiens, NCI-H460, 25 µM, read-out: H460 Lung Carcinoma, Percentage (%) Cell Growth Inhibition in response to 25 µM of Drug
Protocol: as §2, §3, §4

[16] = system: MCF10A normal breast cells; assay: Cancer screening, MTT growth inhibition; type: cell-based; conditions: 25 µM, 72-h exposure; for inhibition at 25 µM: Homo sapiens, MCF-10A, read-out: MCF10A Breast (Normal), Percentage (%) Cell Growth Inhibition in response to 25 µM of Drug
Protocol: as §2, §3
The non-cancer MCF10A cell line was maintained in DMEM/F12 (1:1) cell culture media, 5% heat inactivated horse serum, supplemented with penicillin (50 IUmL^−1), streptomycin (50 µg mL^−1), HEPES (20 mM), L-glutamine (2 mM), epidermal growth factor (20 ng mL^−1), hydrocortisone (500 ng mL^−1), cholera toxin (100 ng mL^−1), and insulin (10 mg mL^−1).
as §4

Molecule	Appearance [1]	β-D-Glucuronidase Bovine Liver, percentage inhibition [2]	inhibition at 1000 µg/mL (stock) [3]	β-D-Glucosidase Almond, percentage inhibition [4]	inhibition at 25 µM [6]	inhibition at 25 µM [7]	inhibition at 25 µM [8]	inhibition at 25 µM [9]	inhibition at 25 µM [10]	inhibition at 25 µM [11]	inhibition at 25 µM [12]	inhibition at 25 µM [13]	inhibition at 25 µM [14]	inhibition at 25 µM [15]	inhibition at 25 µM [16]	α-D-Glucosidase Yeast, percentage inhibition [3]	U87 Glioblastoma, Percentage (%) Cell Growth Inhibition in response to 25 µM of Drug [6]	BE2-C Neuroblastoma, Percentage (%) Cell Growth Inhibition in response to 25 µM of Drug [7]	MIA-Pa-Ca2 Pancreatic Carcinoma, Percentage (%) Cell Growth Inhibition in response to 25 µM of Drug [8]	A2780 Ovarian Carcinoma, Percentage (%) Cell Growth Inhibition in response to 25 µM of Drug [9]	other results
CC1(C)O[C@H]2O[C@H]3[C@@H]([C@H]2O1)N(Cc1ccccc1)C[C@H]3O [Compound 3, N-Benzyl-3,6-dideoxy-3,6-imino-1,2-O-isopropylidene-α-D-gulofuranose]	In solution	−0.2%	-89%	−8.3%	5%	10%	7%	11%	7%	7%	10%	< 0%	10%	9%	9%						inhibition at 100 µM [5]: 0%
OC1O[C@@H]2[C@H]([C@H]1O)N(Cc1ccccc1)C[C@H]2O (stereo partly drawn) [Compound 4, N-Benzyl-3,6-dideoxy-3,6-imino-D-gulofuranose]	In solution	−4.3%	-79%	58.1%	8%	12%	8%	15%	9%	11%	12%	0%	11%	8%	14%						inhibition at 1000 µM [5]: 1.3%
N[C@@H](Cc1ccc(B(O)O)cc1)C(=O)O [^10B-BPA, reference compound]	Some in solution with undissolved sediment	−1%		3%												3.4%	* <0%	* 10 ± 6%	* 11 ± 3%	* 8 ± 4%	α-D-Glucosidase Rice, inhibition % at 100 μM ([5]; 100 μM): ^c NI ^d (0%); MCF-7 Breast Carcinoma, Percentage (%) Cell Growth Inhibition in response to 25 µM of Drug [10]: * 1 ± 3%; A431 Skin Carcinoma, Percentage (%) Cell Growth Inhibition in response to 25 µM of Drug [11]: * 4 ± 4%; SJ-G2 Glioblastoma, Percentage (%) Cell Growth Inhibition in response to 25 µM of Drug [12]: * 5 ± 10%; Du145 Prostate Carcinoma, Percentage (%) Cell Growth Inhibition in response to 25 µM of Drug [13]: * 15 ± 9%; HT29 Colon Carcinoma, Percentage (%) Cell Growth Inhibition in response to 25 µM of Drug [14]: * 15 ± 4%; H460 Lung Carcinoma, Percentage (%) Cell Growth Inhibition in response to 25 µM of Drug [15]: * 8 ± 5%; MCF10A Breast (Normal), Percentage (%) Cell Growth Inhibition in response to 25 µM of Drug [16]: * <0%
borocaptate sodium [BSH, reference compound]	In solution	31.6%		47.3%												59%	* <0%	* 10 ± 6%	* 2 ± 6%	* 2 ± 5%	α-D-Glucosidase Rice, inhibition % at 1000 μM ([5]; 1000 μM): ^a NI ^b (0%); MCF-7 Breast Carcinoma, Percentage (%) Cell Growth Inhibition in response to 25 µM of Drug [10]: * 15 ± 3%; A431 Skin Carcinoma, Percentage (%) Cell Growth Inhibition in response to 25 µM of Drug [11]: * <0%; SJ-G2 Glioblastoma, Percentage (%) Cell Growth Inhibition in response to 25 µM of Drug [12]: * 3 ± 8%; Du145 Prostate Carcinoma, Percentage (%) Cell Growth Inhibition in response to 25 µM of Drug [13]: * 0 ± 8%; HT29 Colon Carcinoma, Percentage (%) Cell Growth Inhibition in response to 25 µM of Drug [14]: * 3 ± 2%; H460 Lung Carcinoma, Percentage (%) Cell Growth Inhibition in response to 25 µM of Drug [15]: * 8 ± 2%; MCF10A Breast (Normal), Percentage (%) Cell Growth Inhibition in response to 25 µM of Drug [16]: * 8 ± 3%
